Test results: patent publication US9932637B2, “Genetic polymorphisms associated with cardiovascular disorders and drug response, methods of detection and uses thereof” (CELERA CORPORATION, priority 2003, dated 2018)
Where “and” joins values, the source holds several entries; their conditions need not be identical. Equal values may be shown once.

Test system: patients with prior myocardial infarction (CARE study)
Test: CARE aligned analysis (prospective and case/control design, white males): association of genotypes with pravastatin efficacy (Tables 13, 15)
Type: in vivo, human
Conditions: for 2 Rare Alleles n/total, Pravastatin Patients / 2 Rare Alleles (%), Pravastatin Patients / Pravastatin Patients (%) / Pravastatin Patients n/total: F&NF MI; for 2 rare alleles n/total (%), pravastatin patients / Pravastatin vs placebo odds ratio, 0 rare alleles / Pravastatin vs placebo odds ratio, 1 rare allele / Pravastatin vs placebo odds ratio, 2 rare alleles: CARE, F MI/SD/NF MI; for Pravastatin Patients (%) / Pravastatin Patients n/total: WM
Procedure: The data presented in Table 8 based on an association of genotypes with pravastatin efficacy of the CARE samples were further analyzed and presented in Table 13. The further analysis was performed to align the data obtained from the analysis of the CARE samples, which was a prospective study, to the analysis of the WOSCOP samples, which was a case/control study. Table 13 also presents an analysis of the association of genotypes with pravastatin efficacy in the WOSCOPs samples. Relative to the analysis performed on the data presented in Table 8, there are two significant differences to determine if the SNP influenced pravastatin efficacy. Data obtained from the CARE samples were separated by study design into two groups, those in the prospective study design group and those in the case/control study design group. The original care study contained 16 protocol defined cardiovascular disease defined endpoints and 150 other phenotypes. […] The control groups used to compare the data were also divided into two groups, the “all possible” control group and the “cleaner” control group. […] Because the participants in the WOSCOPs trial were all white males, only data obtained from white males in the CARE study were analysed. Data from the “all possible” and “cleaner” controls were compared to data obtained from the cases in the prospective study design while only data from “cleaner” controls were compared to cases in the case/control study design. The data from the case/control cohorts were analysed using conditional logistic regression (as opposed to logistic regression used for the original anaylsis).
The anaylsis was refined as described for both Tables 13 and 14.

[1] = F7 hCV783184, CARE Case/Control
[2] = F13A1 hCV11972326, CARE Case/Control
[3] = FABP1 hCV16173091, CARE Case/Control
[4] = FCAR hCV7841842, CARE Case/Control
[5] = FN1 hCV9506149, CARE Case/Control
[6] = GALC hCV25922440, CARE Prospective
[7] = GAPD hCV8921288, CARE Case/Control
[8] = GAPD hCV8921288, CARE Prospective
[9] = HLA-DPB1 hCV8851065, 0 Rare Alleles, CARE Case/Control, All Possible controls
[10] = HLA-DPB1 hCV8851065, 0 Rare Alleles, CARE Case/Control, Cleaner controls
[11] = HLA-DPB1 hCV8851065, 1 Rare Allele, CARE Case/Control, All Possible controls
[12] = HLA-DPB1 hCV8851065, 1 Rare Allele, CARE Case/Control, Cleaner controls
[13] = HLA-DPB1 hCV8851065, Case/Control
[14] = HLA-DPB1 hCV8851065, Prospective
[15] = HLA-DPB1 hCV8851084, 0 Rare Alleles, CARE Case/Control, All Possible controls
[16] = HLA-DPB1 hCV8851084, 0 Rare Alleles, CARE Case/Control, Cleaner controls
[17] = HLA-DPB1 hCV8851084, 0 Rare Alleles, CARE Prospective, Cleaner controls
[18] = HLA-DPB1 hCV8851084, 1 Rare Allele, CARE Case/Control, All Possible controls
[19] = HLA-DPB1 hCV8851084, 1 Rare Allele, CARE Case/Control, Cleaner controls
[20] = HLA-DPB1 hCV8851084, 1 Rare Allele, CARE Prospective, Cleaner controls
[21] = HLA-DPB1 hCV8851084, Case/Control
[22] = HLA-DPB1 hCV8851084, Prospective
[23] = HLA-DPB1 hCV8851085, 0 Rare Alleles, CARE Case/Control, All Possible controls
[24] = HLA-DPB1 hCV8851085, 0 Rare Alleles, CARE Case/Control, Cleaner controls
[25] = HLA-DPB1 hCV8851085, 0 Rare Alleles, CARE Prospective, All Possible controls

CC[C@H](C)C(=O)O[C@H]1C[C@H](O)C=C2C=C[C@H](C)[C@H](CC[C@@H](O)C[C@@H](O)CC(=O)O)[C@H]21 [pravastatin]
2 Rare Alleles n/total, Pravastatin Patients (F7 hCV783138, CARE Prospective): 1/13 and 1/9
2 Rare Alleles (%), Pravastatin Patients [1]: (14.3%)
2 Rare Alleles n/total, Pravastatin Patients [1]: 2/14
2 Rare Alleles (%), Pravastatin Patients (F7 hCV783184, CARE Prospective): (14.3%)
2 Rare Alleles n/total, Pravastatin Patients (F7 hCV783184, CARE Prospective): 2/14
2 Rare Alleles (%), Pravastatin Patients [2]: (19.4%)
2 Rare Alleles n/total, Pravastatin Patients [2]: 14/72
2 Rare Alleles (%), Pravastatin Patients [3]: (20.9%)
2 Rare Alleles n/total, Pravastatin Patients [3]: 19/91
2 Rare Alleles n/total, Pravastatin Patients (FABP1 hCV16173091, CARE Prospective): 19/127 and 19/91
2 rare alleles n/total (%), pravastatin patients (FCAR hCV7841642, Prospective): (12.5%)
Pravastatin vs placebo odds ratio, 0 rare alleles (FCAR hCV7841642, Prospective): 0.84
Pravastatin vs placebo odds ratio, 1 rare allele (FCAR hCV7841642, Prospective): 0.27
Pravastatin vs placebo odds ratio, 2 rare alleles (FCAR hCV7841642, Prospective): 0.43
2 Rare Alleles (%), Pravastatin Patients [4]: (12.5%)
2 Rare Alleles n/total, Pravastatin Patients [4]: 1/8
2 Rare Alleles (%), Pravastatin Patients [5]: (13.8%)
2 Rare Alleles n/total, Pravastatin Patients [5]: 12/87
2 Rare Alleles (%), Pravastatin Patients [6]: (14.7%)
2 Rare Alleles n/total, Pravastatin Patients [6]: 5/34
2 rare alleles n/total (%), pravastatin patients (GALC hCV25922440, Prospective): (14.7%)
Pravastatin vs placebo odds ratio, 0 rare alleles (GALC hCV25922440, Prospective): 0.94
Pravastatin vs placebo odds ratio, 1 rare allele (GALC hCV25922440, Prospective): 0.38
Pravastatin vs placebo odds ratio, 2 rare alleles (GALC hCV25922440, Prospective): 1.12
2 Rare Alleles (%), Pravastatin Patients [7]: (7.5%)
2 Rare Alleles n/total, Pravastatin Patients [7]: 4/53 and 4/38
2 Rare Alleles (%), Pravastatin Patients [8]: (10.5%)
2 Rare Alleles n/total, Pravastatin Patients [8]: 4/38
Pravastatin Patients (%) [9]: (10.0%)
Pravastatin Patients n/total [9]: 63/633
Pravastatin Patients (%) [10]: (14.2%)
Pravastatin Patients n/total [10]: 63/445
Pravastatin Patients (%) [11]: (10.0%)
Pravastatin Patients n/total [11]: 49/491
Pravastatin Patients (%) [12]: (14.9%)
Pravastatin Patients n/total [12]: 49/329
2 rare alleles n/total (%), pravastatin patients [13]: (14.8%)
Pravastatin vs placebo odds ratio, 0 rare alleles [13]: 0.60 and 0.52
Pravastatin vs placebo odds ratio, 1 rare allele [13]: 0.87 and 0.80
Pravastatin vs placebo odds ratio, 2 rare alleles [13]: 5.02 and 5.41
2 rare alleles n/total (%), pravastatin patients [14]: (14.8%)
Pravastatin vs placebo odds ratio, 0 rare alleles [14]: 0.62 and 0.55
Pravastatin vs placebo odds ratio, 1 rare allele [14]: 0.86 and 0.76
Pravastatin vs placebo odds ratio, 2 rare alleles [14]: 4.85 and 4.94
Pravastatin Patients (%) [15]: (10.2%)
Pravastatin Patients n/total [15]: 80/785
Pravastatin Patients (%) [16]: (14.7%)
Pravastatin Patients n/total [16]: 80/546
Pravastatin Patients (%) [17]: (14.4%)
Pravastatin Patients n/total [17]: 80/556
Pravastatin Patients (%) [18]: (10.1%)
Pravastatin Patients n/total [18]: 39/385
Pravastatin Patients (%) [19]: (14.9%)
Pravastatin Patients n/total [19]: 39/262
Pravastatin Patients (%) [20]: (14.7%)
Pravastatin Patients n/total [20]: 39/265
2 Rare Alleles (%), Pravastatin Patients (HLA-DPB1 hCV8851084, CARE Prospective): (25.0%)
2 rare alleles n/total (%), pravastatin patients [21]: (22.6%)
Pravastatin vs placebo odds ratio, 0 rare alleles [21]: 0.60
Pravastatin vs placebo odds ratio, 1 rare allele [21]: 0.84
Pravastatin vs placebo odds ratio, 2 rare alleles [21]: 5.83
2 rare alleles n/total (%), pravastatin patients [22]: (22.6%)
Pravastatin vs placebo odds ratio, 0 rare alleles [22]: 0.61
Pravastatin vs placebo odds ratio, 1 rare allele [22]: 0.82
Pravastatin vs placebo odds ratio, 2 rare alleles [22]: 4.81
Pravastatin Patients (%) [23]: (10.1%)
Pravastatin Patients n/total [23]: 74/733
Pravastatin Patients (%) [24]: (14.4%)
Pravastatin Patients n/total [24]: 74/513
Pravastatin Patients (%) [25]: (9.9%)
Pravastatin Patients n/total [25]: 74/747
